Measurements taken from patent US9381200B2, “Nitrogen containing compounds” (WOCKHARDT LIMITED, priority 2011, dated 2016).
Values after ≈ are worked out from the molar mass of the structure shown. Read-outs that look alike come from different tables or passages of the source.

Legend:
Test in all cases: Antibacterial activity (MIC), agar dilution per CLSI
Type in all cases: cell-based
[1] = system: E. coli 7 MP; conditions: Table 3, E. coli 7 MP expressing ESBL
Description: (§1) The biological activity of representative compounds according to the invention against various bacterial strains was investigated. In a typical study, overnight grown bacterial cultures were diluted appropriately and inoculated on the agar media containing doubling dilutions of the test compounds. Observation for growth or no growth was performed after 16-20 hours of incubation at 35±2° C. in ambient air. The overall procedure was performed as per Clinical and Laboratory Standards Institute (CLSI) recommendations (Clinical and Laboratory Standards Institute (CLSI), Performance Standards for Antimicrobial Susceptibility Testing, 20th Informational Supplement, M 100-S20, Volume 30, No. 1, 2010).
(§2) Table 3 details antibacterial activity of representative compounds according to the invention against various E. coli strains (NCTC 13351, M 50 and 7 MP) expressing ESBL (Extended Spectrum Beta Lactamases).

[2] = system: E. coli NCTC 13351; conditions: 16-20 hours, 35±2° C.
Description: as §1, §2

[3] = system: E. coli M 50; conditions: E. coli M 50 expressing ESBL, agar dilution
Description: as §1
The activities are expressed as MICs (mcg/ml).

[4] = Escherichia coli, read-out: MIC
[5] = Escherichia coli, NCTC13351, Table 3, E. coli NCTC 13351 expressing ESBL, read-out: MIC
[6] = Escherichia coli, M50, Table 3, read-out: MIC
[7] = Table 3, E. coli NCTC 13351 expressing ESBL

Row | Structure (SMILES) | MIC [1, 4] [µg/mL] | MIC [2, 5] [µg/mL] | MIC [3, 6] [µg/mL] | MIC [1] [µg/mL] | MIC [2, 7] [µg/mL] | MIC ([3]; Table 3) [µg/mL]
1 | CO[C@H]1CN[C@H](C(=O)NNC(=O)[C@H]2CC[C@@H]3CN2C(=O)N3OS(=O)(=O)O)C1 (mixture of isomers) [Example 12, trans-sulfuric acid mono-[2-(N′-[(2S,4R)-4-methoxy-pyrrolidin-2-carbonyl]-hydrazinocarbonyl)-7-oxo-1,6-diaza-bicyclo[3.2.1]oct-6-yl]ester] | 32 | 1 | 8 | – | – | –
2 | O=C(NNC(=O)[C@H]1CC[C@@H]2CN1C(=O)N2OS(=O)(=O)O)[C@H]1CCCNC1 (mixture of isomers) [Example 15, trans-sulfuric acid mono-[2-(N′—((S)-piperidin-3-carbonyl)-hydrazinocarbonyl)-7-oxo-1,6-diaza-bicyclo[3.2.1]oct-6-yl]ester] | 16 | 8 | 4 | – | – | –
3 | O=C(NNC(=O)[C@H]1CCCCN1)[C@H]1CC[C@@H]2CN1C(=O)N2OS(=O)(=O)O (mixture of isomers) [Example 18, trans-sulfuric acid mono-[2-(N′—((R)-piperidin-2-carbonyl)-hydrazinocarbonyl)-7-oxo-1,6-diaza-bicyclo[3.2.1]oct-6-yl]ester] | 32 | 8 | 4 | – | – | –
4 | NCCCC[C@H](N)C(=O)NNC(=O)[C@H]1CC[C@@H]2CN1C(=O)N2OS(=O)(=O)O (mixture of isomers) [Example 26, trans-sulfuric acid mono-[2-(N′-((2S)-2,6-diamino-hexanoyl)-hydrazinocarbonyl)-7-oxo-1,6-diaza-bicyclo[3.2.1]oct-6-yl]ester] | 2 | 1 | 1 | – | – | –
5 | O=C(NNC(=O)[C@H]1CC[C@@H]2CN1C(=O)N2OS(=O)(=O)O)[C@H]1CCNC1 (mixture of isomers) [Example 33, trans-sulfuric acid mono-[2-(N′—[(S)-pyrrolidin-3-carbonyl]-hydrazinocarbonyl)-7-oxo-1,6-diaza-bicyclo[3.2.1]oct-6-yl]ester] | 2 | 1 | 0.5 | – | – | –
6 | O=C(NNC(=O)[C@H]1CC[C@@H]2CN1C(=O)N2OS(=O)(=O)O)[C@@H]1C[C@@H](O)CN1 (mixture of isomers) [Example 34, trans-sulfuric acid mono-[2-(N′-[(2S,4R)-4-hydroxy-pyrrolidin-2-carbonyl]-hydrazinocarbonyl)-7-oxo-1,6-diaza-bicyclo[3.2.1]oct-6-yl]ester] | 8 | 2 | 2 | – | – | –
7 | N=C(N)N[C@@H]1CN[C@H](C(=O)NNC(=O)[C@H]2CC[C@@H]3CN2C(=O)N3OS(=O)(=O)O)C1 (mixture of isomers) [Example 36, trans-sulfuric acid mono-[2-(N′-[(2S,4S)-4-guanidino-pyrrolidin-2-carbonyl]-hydrazinocarbonyl)-7-oxo-1,6-diaza-bicyclo[3.2.1]oct-6-yl]ester] | 2 | 1 | 1 | – | – | –
8 | O=C(NNC(=O)[C@H]1CC[C@@H]2CN1C(=O)N2OS(=O)(=O)O)[C@@H]1COCCN1 (mixture of isomers) [Example 39, trans-sulfuric acid mono-[2-(N′—((S)-morpholin-3-carbonyl)-hydrazinocarbonyl)-7-oxo-1,6-diaza-bicyclo[3.2.1]oct-6-yl]ester] | 8 | 4 | 2 | – | – | –
9 | O=C(NNC(=O)[C@H]1CC[C@@H]2CN1C(=O)N2OS(=O)(=O)O)C1CCCCN1 (mixture of isomers) [Example 16, trans-sulfuric acid mono-[2-(N′—((RS)-piperidin-2-carbonyl)-hydrazinocarbonyl)-7-oxo-1,6-diaza-bicyclo[3.2.1]oct-6-yl]ester] | 2 (≈ 5.11 µM) | 1 (≈ 2.55 µM) | 1 (≈ 2.55 µM) | – | – | –
10 | NC(C(=O)NNC(=O)[C@H]1CC[C@@H]2CN1C(=O)N2OS(=O)(=O)O)c1ccccc1 (mixture of isomers) [Example 20, trans-sulfuric acid mono-[2-(N′—((RS)-1-amino-1-phenyl-acetyl)-hydrazinocarbonyl)-7-oxo-1,6-diaza-bicyclo[3.2.1]oct-6-yl]ester] | – | – | – | 8 (≈ 19.4 µM) | 2 (≈ 4.84 µM) | 2 (≈ 4.84 µM)
11 | CC(N)CC(=O)NNC(=O)[C@H]1CC[C@@H]2CN1C(=O)N2OS(=O)(=O)O (mixture of isomers) [Example 21, trans-sulfuric acid mono-[2-(N′—((RS)-3-amino-butanoyl)-hydrazinocarbonyl)-7-oxo-1,6-diaza-bicyclo[3.2.1]oct-6-yl]ester] | 4 (≈ 10.9 µM) | 1 (≈ 2.74 µM) | 1 (≈ 2.74 µM) | – | – | –
12 | O=C(NNC(=O)[C@H]1CC[C@@H]2CN1C(=O)N2OS(=O)(=O)O)C1CCNC1 (mixture of isomers) [Example 32, trans-sulfuric acid mono-[2-(N′—[(RS)-pyrrolidin-3-carbonyl]-hydrazinocarbonyl)-7-oxo-1,6-diaza-bicyclo[3.2.1]oct-6-yl]ester] | 1 (≈ 2.65 µM) | 0.5 (≈ 1.32 µM) | 0.5 (≈ 1.32 µM) | – | – | –
13 | O=C(CCC1CCCCN1)NNC(=O)[C@H]1CC[C@@H]2CN1C(=O)N2OS(=O)(=O)O (mixture of isomers) [Example 37, trans-sulfuric acid mono-[2-(N′—[(RS)-3-piperidin-2-yl-propionyl]-hydrazinocarbonyl)-7-oxo-1,6-diaza-bicyclo[3.2.1]oct-6-yl]ester] | 4 (≈ 9.54 µM) | 2 (≈ 4.77 µM) | 2 (≈ 4.77 µM) | – | – | –
14 | NC(C(=O)NNC(=O)[C@H]1CC[C@@H]2CN1C(=O)N2OS(=O)(=O)O)c1ccccn1 (mixture of isomers) [Example 41, trans-sulfuric acid mono-[2-(N′—((RS)-1-amino-1-pyridin-2-yl-acetyl)-hydrazinocarbonyl)-7-oxo-1,6-diaza-bicyclo[3.2.1]oct-6-yl]ester] | – | – | – | 16 (≈ 38.6 µM) | 4 (≈ 9.65 µM) | 4 (≈ 9.65 µM)
15 | NNC(=O)[C@H]1CC[C@@H]2CN1C(=O)N2OS(=O)(=O)O (relative stereo) [Example 6, trans-sulfuric acid mono-[2-hydrazinocarbonyl-7-oxo-1,6-diaza-bicyclo[3.2.1]oct-6-yl]ester] | 128 (≈ 457 µM) | 32 (≈ 114 µM) | 64 (≈ 228 µM) | – | – | –
16 | N[C@@H](CO)C(=O)NNC(=O)[C@H]1CC[C@@H]2CN1C(=O)N2OS(=O)(=O)O (relative stereo) [Example 10] | – | – | – | 32 (≈ 87.1 µM) | 1 (≈ 2.72 µM) | 8 (≈ 21.8 µM)
17 | CC(C)(CN)C(=O)NNC(=O)[C@H]1CC[C@@H]2CN1C(=O)N2OS(=O)(=O)O (relative stereo) [Example 22, trans-sulfuric acid mono-[2-(N′-(3-amino-2,2-dimethyl-propioyl)-hydrazinocarbonyl)-7-oxo-1,6-diaza-bicyclo[3.2.1]oct-6-yl]ester] | 8 (≈ 21.1 µM) | 4 (≈ 10.5 µM) | 4 (≈ 10.5 µM) | – | – | –
18 | NCC1(C(=O)NNC(=O)[C@H]2CC[C@@H]3CN2C(=O)N3OS(=O)(=O)O)CC1 (relative stereo) [Example 23, trans-sulfuric acid mono-[2-(N′-(1-aminomethyl-cyclopropan-1-carbonyl)-hydrazinocarbonyl)-7-oxo-1,6-diaza-bicyclo[3.2.1]oct-6-yl]ester] | 8 (≈ 21.2 µM) | 4 (≈ 10.6 µM) | 4 (≈ 10.6 µM) | – | – | –
19 | NC(=O)CCC(N)C(=O)NNC(=O)[C@H]1CC[C@@H]2CN1C(=O)N2OS(=O)(=O)O (relative stereo) [Example 24, trans-sulfuric acid mono-[2-(N′-(2-amino-4-carboxamido-butanoyl)-hydrazinocarbonyl)-7-oxo-1,6-diaza-bicyclo[3.2.1]oct-6-yl]ester] | – | – | – | 4 (≈ 9.79 µM) | 1 (≈ 2.45 µM) | 1 (≈ 2.45 µM)
20 | NCCCCC(=O)NNC(=O)[C@H]1CC[C@@H]2CN1C(=O)N2OS(=O)(=O)O (relative stereo) [Example 25, trans-sulfuric acid mono-[2-(N′-(5-amino-pentanoyl)-hydrazinocarbonyl)-7-oxo-1,6-diaza-bicyclo[3.2.1]oct-6-yl]ester] | 4 (≈ 10.5 µM) | 1 (≈ 2.64 µM) | 1 (≈ 2.64 µM) | – | – | –
21 | NCCOCC(=O)NNC(=O)[C@H]1CC[C@@H]2CN1C(=O)N2OS(=O)(=O)O (relative stereo) [Example 27, trans-sulfuric acid mono-[2-(N′-((2-aminoethoxy)-acetyl)-hydrazinocarbonyl)-7-oxo-1,6-diaza-bicyclo[3.2.1]oct-6-yl]ester] | 8 (≈ 21 µM) | 4 (≈ 10.5 µM) | 2 (≈ 5.24 µM) | – | – | –
22 | O=C(NNC(=O)[C@H]1CC[C@@H]2CN1C(=O)N2OS(=O)(=O)O)C1CNC1 (relative stereo) [Example 28, trans-sulfuric acid mono-[2-(N′-[azetidin-3-carbonyl]-hydrazinocarbonyl)-7-oxo-1,6-diaza-bicyclo[3.2.1]oct-6-yl]ester] | 4 (≈ 11 µM) | 1 (≈ 2.75 µM) | 1 (≈ 2.75 µM) | – | – | –
23 | O=C(NNC(=O)N1CCCC1)[C@H]1CC[C@@H]2CN1C(=O)N2OS(=O)(=O)O (relative stereo) [Example 29, trans-sulfuric acid mono-[2-(N′-[pyrrolidin-1-carbonyl]-hydrazinocarbonyl)-7-oxo-1,6-diaza-bicyclo[3.2.1]oct-6-yl]ester] | 128 (≈ 339 µM) | 32 (≈ 84.8 µM) | 16 (≈ 42.4 µM) | – | – | –
